This passage reports GI50 and TGI results from PubChem BioAssay (NCI).

Test systems include MDA-MB-231 breast; MCF7 breast; NCI/ADR-RES ovarian; MDA-MB-435; DU-145 prostate.
Holding throughout (assay): inhibition of tumour cell growth, NCI panel, 48 h

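Each compound was tested at five concentrations against cells in 96-well plates for 48 hours. Here, GI50 denotes the concentration required for 50% inhibition of growth. TGI denotes the concentration required for complete inhibition of growth.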

`CCCCC[C@H]1C/C=C2/C(=O)C(Cl)=C[C@@H]2C/C=C\CCCC(=O)O[C@@H](CCCCC)C/C=C2/C(=O)C(Cl)=C[C@@H]2C/C=C\CCCC(=O)O1`: the GI50 is 0.372 µM in the experiment with MDA-MB-231 breast; 155 nM with MCF7 breast; 2.44 µM with NCI/ADR-RES ovarian; 0.344 µM in the experiment on MDA-MB-435; 494 nM in the experiment on DU-145 prostate. The TGI in the experiment with MDA-MB-231 breast was found to be 0.995 µM; with MCF7 breast, 1.93 µM; in the experiment with NCI/ADR-RES ovarian it was 9.46 µM; with MDA-MB-435 it was 0.793 µM; with DU-145 prostate it was 1.74 µM.
With `Fc1ccc(Nc2nccc(-c3c(-c4ccc(C(F)(F)F)cc4)nn4ncccc34)n2)cc1F`, the GI50 with MDA-MB-231 breast is over 25 µM; in the experiment with MCF7 breast, over 20200 nM; with NCI/ADR-RES ovarian it was over 25 µM; with MDA-MB-435, over 25 µM; in the experiment with DU-145 prostate it was over 25000 nM. The TGI with MDA-MB-231 breast, with MCF7 breast, with NCI/ADR-RES ovarian, with MDA-MB-435 and with DU-145 prostate was over 25 µM each time.
With `Fc1ccc(Nc2nc(NCCNc3ccnc4cc(Cl)ccc34)nc(N3CCOCC3)n2)cc1`, the GI50 with MDA-MB-231 breast is 3.05 µM; with MCF7 breast, 3430 nM; with NCI/ADR-RES ovarian, 9.36 µM; in the experiment on MDA-MB-435 it was 2.22 µM; in the experiment with DU-145 prostate, 8680 nM. In addition, the TGI was found to be 11.1 µM in the experiment on MDA-MB-231 breast; 14.7 µM in the experiment on MCF7 breast; 26.5 µM in the experiment on NCI/ADR-RES ovarian; 5.38 µM in the experiment on MDA-MB-435; 21.1 µM with DU-145 prostate.
For the molecule `Oc1cc(Cl)ccc1Oc1ccc(Cl)cc1Cl`, the GI50 in the experiment with MDA-MB-231 breast is 2.16 µM; in the experiment on MCF7 breast it was 3140 nM; with NCI/ADR-RES ovarian, 2.81 µM; with MDA-MB-435, 2.86 µM; with DU-145 prostate, 4610 nM. For the same molecule, the TGI in the experiment with MDA-MB-231 breast worked out at 4.95 µM; in the experiment on MCF7 breast it was 10.6 µM; with NCI/ADR-RES ovarian, 7.93 µM; in the experiment on MDA-MB-435 it was 9.24 µM; in the experiment with DU-145 prostate, 16.3 µM.
In the case of `CCOC(=O)c1c(C)n(Cc2ccc(Cl)cc2Cl)c2c1cc1oc(=O)c(=O)n3c(Cc4ccccc4)nc2c13`, the GI50 is 2.77 µM in the experiment on MDA-MB-231 breast; 2520 nM with MCF7 breast; 5.46 µM in the experiment on NCI/ADR-RES ovarian; 4.55 µM with MDA-MB-435; 2450 nM with DU-145 prostate. In addition, the TGI in the experiment with MDA-MB-231 breast is 7.23 µM; in the experiment on MCF7 breast it was 8.07 µM; in the experiment on NCI/ADR-RES ovarian, 18.3 µM; with MDA-MB-435, 16.9 µM; in the experiment on DU-145 prostate it was 6.64 µM.
As for `O=c1oc2ccc(Cl)cc2c(=O)n1-c1ccc(I)cc1F`, the GI50 in the experiment with MDA-MB-231 breast is 0.25 µM; in the experiment on MCF7 breast, 258 nM; in the experiment on NCI/ADR-RES ovarian it was 0.3 µM; with MDA-MB-435 it was 0.271 µM; in the experiment with DU-145 prostate, 436 nM. Moreover, the TGI with MDA-MB-231 breast is 3.57 µM; with MCF7 breast it was over 23.9 µM; with NCI/ADR-RES ovarian, 2.87 µM; in the experiment with MDA-MB-435, 3.86 µM; with DU-145 prostate it was over 49.5 µM.
In the case of `O=C(NN1C(=O)CSC1c1ccc(Cl)cc1)c1[nH]c2ccc(F)cc2c1-c1ccccc1` (stereo not given), the GI50 is 2.81 µM in the experiment on MDA-MB-231 breast; 2850 nM in the experiment with MCF7 breast; 3 µM in the experiment with NCI/ADR-RES ovarian; 2.94 µM in the experiment on MDA-MB-435; 2200 nM with DU-145 prostate. The TGI is 7.86 µM in the experiment on MDA-MB-231 breast; 8.58 µM in the experiment on MCF7 breast; 10.6 µM with NCI/ADR-RES ovarian; 9.13 µM with MDA-MB-435; 4.63 µM in the experiment with DU-145 prostate.
Turning to `Clc1ccc2nc(Oc3ccccc3)cnc2c1`, the GI50 in the experiment on MDA-MB-231 breast was over 100 µM; with MCF7 breast, over 100000 nM; in the experiment on NCI/ADR-RES ovarian, over 100 µM; in the experiment with MDA-MB-435, over 100 µM; in the experiment on DU-145 prostate it was over 100000 nM. Moreover, the TGI in the experiment with MDA-MB-231 breast, with MCF7 breast, in the experiment with NCI/ADR-RES ovarian, in the experiment with MDA-MB-435 and with DU-145 prostate was over 100 µM throughout.
For `Cn1cc(-c2ccc3c(c2)CCN3C(=O)Cc2cccc(C(F)(F)F)c2)c2c(N)ncnc21`, the GI50 is 4.69 µM in the experiment with MDA-MB-231 breast; 4500 nM in the experiment with MCF7 breast; 4.64 µM in the experiment with NCI/ADR-RES ovarian; 4.46 µM in the experiment on MDA-MB-435; 2500 nM in the experiment with DU-145 prostate. In addition, the TGI in the experiment on MDA-MB-231 breast was determined as 21.9 µM; with MCF7 breast, 18.4 µM; in the experiment with NCI/ADR-RES ovarian, 38.8 µM; in the experiment on MDA-MB-435, 21.2 µM; with DU-145 prostate, 19.5 µM.
For the molecule `CC[CH2][Pb]([CH2]CC)([CH2]CC)[NH]S(=O)(=O)c1ccc(C)cc1`, the GI50 in the experiment with MDA-MB-231 breast was 0.0661 µM; in the experiment with MCF7 breast, 65.1 nM; with NCI/ADR-RES ovarian it was 0.217 µM; with MDA-MB-435 it was 0.0194 µM; in the experiment on DU-145 prostate, 85.3 nM. The TGI was found to be 0.27 µM in the experiment on MDA-MB-231 breast; 0.418 µM in the experiment with MCF7 breast; 0.641 µM in the experiment on NCI/ADR-RES ovarian; 0.0766 µM in the experiment on MDA-MB-435; 0.444 µM in the experiment with DU-145 prostate.
With `COc1cc2cc(Oc3ccc(NC(=O)c4ccc(Cl)c(C(F)(F)F)c4)cc3)c(C)nc2cc1OC`, the GI50 in the experiment with MDA-MB-231 breast is 11.4 µM; with MCF7 breast it was 8950 nM; with NCI/ADR-RES ovarian it was 4.21 µM; with MDA-MB-435, 14.7 µM; with DU-145 prostate, 26200 nM. For the same molecule, the TGI is 27.5 µM with MDA-MB-231 breast; over 100 µM with MCF7 breast; over 100 µM in the experiment with NCI/ADR-RES ovarian; over 100 µM in the experiment on MDA-MB-435; over 100 µM in the experiment with DU-145 prostate.
In the case of `Cc1cn2c(/C=N/N/C(N)=N\N)c(-c3ccc(Cl)c([N+](=O)[O-])c3)nc2s1`, the GI50 in the experiment on MDA-MB-231 breast was 0.791 µM; in the experiment on MCF7 breast, 1560 nM; with NCI/ADR-RES ovarian it was 15.7 µM; in the experiment on MDA-MB-435, 1.05 µM; with DU-145 prostate, 1120 nM. Besides, the TGI with MDA-MB-231 breast is 1.87 µM; in the experiment on MCF7 breast it was over 50 µM; with NCI/ADR-RES ovarian it was 46.8 µM; in the experiment on MDA-MB-435, 2.22 µM; in the experiment with DU-145 prostate it was 3.65 µM.
On to `CCc1c[nH]c2ncnc(N3CC[C@@](N)(CNC(=O)c4ccc(F)cc4F)C3)c12`, for which the GI50 in the experiment on MDA-MB-231 breast was 35.6 µM; in the experiment on MCF7 breast, 26600 nM; in the experiment on NCI/ADR-RES ovarian, 83.9 µM; with MDA-MB-435 it was 33.5 µM; in the experiment on DU-145 prostate, 42200 nM. Also, the TGI in the experiment with MDA-MB-231 breast, in the experiment on MCF7 breast, with NCI/ADR-RES ovarian, in the experiment on MDA-MB-435 and with DU-145 prostate was over 100 µM each time.
As to `COC(=O)[C@@H]1CCCN1C(=O)[C@@H]1CCCN1C(=O)[C@@H](Cc1c[nH]c2ccccc12)NC(=S)Nc1cc(C(F)(F)F)cc(C(F)(F)F)c1`, the GI50 was 3.01 µM with MDA-MB-231 breast; 2610 nM with MCF7 breast; over 100 µM in the experiment with NCI/ADR-RES ovarian; 2.44 µM in the experiment with MDA-MB-435; 14600 nM with DU-145 prostate. Besides, the TGI in the experiment on MDA-MB-231 breast is 10.8 µM; with MCF7 breast, over 100 µM; in the experiment on NCI/ADR-RES ovarian, over 100 µM; in the experiment with MDA-MB-435, 6.8 µM; with DU-145 prostate, over 100 µM.
`C=C[C@]1(C)C=C2C(=O)[C@@]3(O)OC[C@@]4(CCCC(C)(C)C43O)C2(O)C(O)C1` (stereo not given in full): the GI50 in the experiment with MDA-MB-231 breast was 13.3 µM; in the experiment with MCF7 breast, 3390 nM; in the experiment on NCI/ADR-RES ovarian, 2.33 µM; in the experiment on MDA-MB-435, 3.95 µM; in the experiment on DU-145 prostate, 3030 nM. In addition, the TGI in the experiment with MDA-MB-231 breast was 27.3 µM; with MCF7 breast, 15.3 µM; in the experiment on NCI/ADR-RES ovarian it was 6.62 µM; in the experiment with MDA-MB-435, 14.9 µM; in the experiment on DU-145 prostate, 11.6 µM.
`CCOC(=O)c1cnn(-c2ccnc3c(C(F)(F)F)cccc23)c1N`: the GI50 with MDA-MB-231 breast is over 100 µM; in the experiment on MCF7 breast, over 100000 nM; in the experiment on NCI/ADR-RES ovarian, over 100 µM; in the experiment with MDA-MB-435 it was over 100 µM; with DU-145 prostate, over 100000 nM. The TGI with MDA-MB-231 breast, with MCF7 breast, with NCI/ADR-RES ovarian, with MDA-MB-435 and with DU-145 prostate was over 100 µM each time.
In the case of `C[C@H](CS(C)(=O)=O)Nc1ncc2cc(Oc3ccc(F)cc3F)c(=O)n(C)c2n1`, the GI50 with MDA-MB-231 breast is over 25 µM; in the experiment with MCF7 breast it was over 25000 nM; in the experiment with NCI/ADR-RES ovarian, over 25 µM; in the experiment on MDA-MB-435 it was over 25 µM; in the experiment on DU-145 prostate it was over 25000 nM. For the same molecule, the TGI in the experiment with MDA-MB-231 breast, with MCF7 breast, in the experiment with NCI/ADR-RES ovarian, in the experiment with MDA-MB-435 and in the experiment on DU-145 prostate was over 25 µM each time.
As for `COc1ccc2c(c1)C(=O)c1c-2n(CCCN2CCOCC2)c(=O)c2ccccc12`, the GI50 is 15.4 µM in the experiment with MDA-MB-231 breast; 291 nM in the experiment on MCF7 breast; 3.8 µM in the experiment on NCI/ADR-RES ovarian; 4.54 µM in the experiment on MDA-MB-435; 2390 nM in the experiment on DU-145 prostate. Moreover, the TGI with MDA-MB-231 breast is over 100 µM; in the experiment on MCF7 breast it was 13 µM; in the experiment with NCI/ADR-RES ovarian, over 93.1 µM; in the experiment on MDA-MB-435, over 100 µM; in the experiment with DU-145 prostate, 10.2 µM.
Consider `C=C(C)[C@@H]1CC[C@@]2(C)[C@H]1[C@H]1CCC3[C@@]4(C)CC[C@H](O)C(C)(C)[C@@H]4CC[C@@]3(C)[C@]1(C)C[C@@H]2O` (stereo not given in full), for which the TGI with MDA-MB-231 breast was over 100 µM; in the experiment on MCF7 breast, over 100 µM; in the experiment on NCI/ADR-RES ovarian, over 100 µM; in the experiment with MDA-MB-435, 84.9 µM; in the experiment on DU-145 prostate, over 100 µM.
